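The compound was tested at five concentrations on cells cultured in 96-well plates, with a 48-hour exposure period. At the GI50, growth is halved. TGI is the concentration that stops growth completely.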
Assays:
Test in all cases: DTP human tumour cell line panel, 48 h
[1] = system: 786-0 renal
[2] = system: A498 renal
[3] = system: A549 NSCLC
[4] = system: ACHN renal
[5] = system: BT-549 breast
[6] = system: CAKI-1 renal
[7] = system: COLO 205 colon
[8] = system: DU-145 prostate
[9] = system: EKVX NSCLC
[10] = system: HCC-2998 colon
[11] = system: HCT-116 colon
[12] = system: HCT-15 colon
[13] = system: HL-60(TB) leukemia
[14] = system: HOP-62 NSCLC
[15] = system: HOP-92 NSCLC
[16] = system: HT29 colon
[17] = system: IGROV1 ovarian
[18] = system: K-562 leukemia
[19] = system: KM12 colon
[20] = system: LOX IMVI melanoma
[21] = system: M14 melanoma
[22] = system: MALME-3M melanoma
[23] = system: MCF7 breast
[24] = system: MDA-MB-231 breast
[25] = system: MDA-MB-435
[26] = system: MOLT-4 leukemia
[27] = system: NCI-H226 lung
[28] = system: NCI-H23 lung
[29] = system: NCI-H460 lung
[30] = system: NCI-H522 lung
[31] = system: NCI/ADR-RES ovarian
[32] = system: OVCAR-3 ovarian
[33] = system: OVCAR-4 ovarian
[34] = system: OVCAR-5 ovarian
[35] = system: OVCAR-8 ovarian
[36] = system: PC-3 prostate
[37] = system: RXF 393 renal
[38] = system: SF-268 CNS
[39] = system: SF-295 CNS
[40] = system: SF-539 CNS
[41] = system: SK-MEL-2 melanoma
[42] = system: SK-MEL-28 melanoma
[43] = system: SK-MEL-5 melanoma
[44] = system: SK-OV-3 ovarian
[45] = system: SN12C renal
[46] = system: SNB-19 CNS
[47] = system: SNB-75 CNS
[48] = system: SR leukemia
[49] = system: SW-620 colon
[50] = system: T-47D breast
[51] = system: TK-10 renal
[52] = system: U251 CNS
[53] = system: UACC-257 melanoma
[54] = system: UACC-62 melanoma
[55] = system: UO-31 renal

Structure (SMILES): CCCCCOc1ccc(/C=N/Nc2cc(C)nc3ccc(Cl)cc23)cc1
- GI50 [1]: 1.78 µM
- TGI [1]: 3.32 µM
- GI50 [2]: 1.19 µM
- TGI [2]: 2.47 µM
- GI50 [3]: 1.9 µM
- TGI [3]: 3.52 µM
- GI50 [4]: 1.75 µM
- TGI [4]: 3.13 µM
- GI50 [5]: 1.74 µM
- TGI [5]: 3.28 µM
- GI50 [6]: 1.64 µM
- TGI [6]: 3.03 µM
- GI50 [7]: 1.89 µM
- TGI [7]: 3.61 µM
- GI50 [8]: 1.88 µM
- TGI [8]: 3.7 µM
- GI50 [9]: 1.67 µM
- TGI [9]: 3.07 µM
- GI50 [10]: 1.95 µM
- TGI [10]: 3.54 µM
- GI50 [11]: 1.04 µM
- TGI [11]: 2.29 µM
- GI50 [12]: 1.43 µM
- TGI [12]: 2.84 µM
- GI50 [13]: 1.64 µM
- TGI [13]: 3.36 µM
- GI50 [14]: 1.62 µM
- TGI [14]: 3.29 µM
- GI50 [15]: 1.47 µM
- TGI [15]: 2.96 µM
- GI50 [16]: 1.44 µM
- TGI [16]: 2.81 µM
- GI50 [17]: 1.91 µM
- TGI [17]: 3.6 µM
- GI50 [18]: 0.691 µM
- TGI [18]: 2.27 µM
- GI50 [19]: 1.79 µM
- TGI [19]: 3.41 µM
- GI50 [20]: 1.69 µM
- TGI [20]: 3.15 µM
- GI50 [21]: 1.76 µM
- TGI [21]: 3.23 µM
- GI50 [22]: 1.85 µM
- TGI [22]: 3.39 µM
- GI50 [23]: 1.64 µM
- TGI [23]: 3.4 µM
- GI50 [24]: 1.71 µM
- TGI [24]: 3.23 µM
- GI50 [25]: 1.75 µM
- TGI [25]: 3.21 µM
- GI50 [26]: 1.65 µM
- TGI [26]: 3.36 µM
- GI50 [27]: 1.64 µM
- TGI [27]: 3.68 µM
- GI50 [28]: 1.78 µM
- TGI [28]: 3.47 µM
- GI50 [29]: 1.95 µM
- TGI [29]: 3.96 µM
- GI50 [30]: 1.63 µM
- TGI [30]: 3.08 µM
- GI50 [31]: 1.89 µM
- TGI [31]: 3.92 µM
- GI50 [32]: 1.97 µM
- TGI [32]: 3.58 µM
- GI50 [33]: 1.72 µM
- TGI [33]: 3.22 µM
- GI50 [34]: 1.82 µM
- TGI [34]: 3.23 µM
- GI50 [35]: 1.98 µM
- TGI [35]: 4.23 µM
- GI50 [36]: 1.61 µM
- TGI [36]: 3.1 µM
- GI50 [37]: 1.63 µM
- TGI [37]: 3.08 µM
- GI50 [38]: 2.23 µM
- TGI [38]: 4.46 µM
- GI50 [39]: 1.77 µM
- TGI [39]: 3.34 µM
- GI50 [40]: 1.86 µM
- TGI [40]: 3.3 µM
- GI50 [41]: 1.7 µM
- TGI [41]: 3.17 µM
- GI50 [42]: 1.69 µM
- TGI [42]: 3.09 µM
- GI50 [43]: 1.63 µM
- TGI [43]: 3.01 µM
- GI50 [44]: 1.65 µM
- TGI [44]: 3.08 µM
- GI50 [45]: 1.71 µM
- TGI [45]: 3.22 µM
- GI50 [46]: 1.87 µM
- TGI [46]: 3.41 µM
- GI50 [47]: 1.63 µM
- TGI [47]: 3.22 µM
- GI50 [48]: 0.369 µM
- TGI [48]: 1.73 µM
- GI50 [49]: 1.73 µM
- TGI [49]: 3.53 µM
- GI50 [50]: 1.76 µM
- TGI [50]: 3.71 µM
- GI50 [51]: 1.77 µM
- TGI [51]: 3.16 µM
- GI50 [52]: 1.7 µM
- TGI [52]: 3.16 µM
- GI50 [53]: 1.72 µM
- TGI [53]: 3.27 µM
- GI50 [54]: 1.68 µM
- TGI [54]: 3.15 µM
- GI50 [55]: 1.56 µM
- TGI [55]: 2.93 µM

Structure (SMILES): O=C(NCc1cccc(CNC(=O)Nc2nc3ccccc3[nH]2)c1)Nc1nc2ccccc2[nH]1
- GI50 [2]: 2.07 µM
- TGI [2]: 5.11 µM
- GI50 [4]: 4.16 µM
- TGI [4]: > 100 µM
- GI50 [6]: > 100 µM
- TGI [6]: > 100 µM
- GI50 [12]: > 100 µM
- TGI [12]: > 100 µM
- GI50 [13]: > 100 µM
- TGI [13]: > 100 µM
- GI50 [14]: 1.95 µM
- TGI [14]: 4.92 µM
- GI50 [15]: 1.25 µM
- TGI [15]: 3.26 µM
- GI50 [31]: > 100 µM
- TGI [31]: > 100 µM
- GI50 [41]: 2.36 µM
- TGI [41]: 7.1 µM
- GI50 [47]: 1.58 µM
- TGI [47]: 4.18 µM
- GI50 [50]: 3.33 µM
- TGI [50]: > 100 µM

Structure (SMILES): COc1cc(/C=C2\C[C@H]3[C@@H]4CCc5cc(OCCN6CCCC6)ccc5[C@H]4CC[C@]3(C)C2=O)cc(OC)c1OC
- TGI [5]: > 100 µM
- TGI [7]: 2.81 µM
- TGI [8]: 3.56 µM
- TGI [12]: 3.77 µM
- TGI [19]: 3.36 µM
- TGI [28]: 7.4 µM
- TGI [41]: 5.34 µM
- TGI [43]: 2.86 µM
- TGI [44]: 8.3 µM
- TGI [53]: 4.89 µM
- TGI [54]: 7.22 µM

— PubChem BioAssay (NCI)
